Measurements: patent US20260240202A1, “MINERAL PROTEINATES FOR USE IN ANIMAL FEEDS, AND METHODS OF MAKING THEREOF” (Cargill, Incorporated, priority 2023, published 2026)
Marks after values point to notes of the source that are not given here.

Test: Chick Zn bioavailability trial: performance and tibia bone measures
Format: in vivo, New Hampshire×Columbian male and female chicks
Settings: for Dry Bone Wt (mg/tibia) / Bone Ash (%) / Bone Ash Wt (mg/tibia) / Tibia Ash Zn Conc. (μg/g of ash): 14 d; for Dry Bone Wt (mg/tibia): right tibia
Method: New Hampshire×Columbian male and female chicks from the University of Illinois Poultry Field Laboratory were fed a nutritionally complete corn-soybean meal diet for the first 3 days post-hatching. The chicks were then switched to a Zn-deficient soy concentrate basal diet and fed this diet until 1600 h on D 7 post-hatching. After being subjected to overnight feed withdrawal, chicks were weighed, wing banded and allotted to pens so that each pen has a similar initial weight. Treatment additions were made at the expense of cornstarch. The trial diet can be seen in Table 6.
Five replicate groups of four chicks were fed one of 10 diets for 14 d (Day 8-22 post-hatch). Chicks were maintained in heated stainless-steel batteries and exposed to constant fluorescent light. The dietary treatments are listed below: • 1. Basal soy concentrate diet-Zn deficient (13-14 mg/kg Zn) • 2. As 1+3 mg/kg Zn from feed grade ZnSO4·7H2O • 3. As 1+6 mg/kg Zn from feed grade ZnSO4·7H2O • 4. As 1+9 mg/kg Zn from feed grade ZnSO4·7H2O • 5. As 1+3 mg/kg Zn from Organic Zn prototype MinPro-E75 • 6. As 1+6 mg/kg Zn from Organic Zn prototype MinPro-E75 • 7. As 1+9 mg/kg Zn from Organic Zn prototype MinPro-E75 • 8. As 1+3 mg/kg Zn from Organic Zn prototype MinPro-HSW • 9. As 1+6 mg/kg Zn from Organic Zn prototype MinPro-HSW • 10. As 1+9 mg/kg Zn from Organic Zn prototype MinPro-HSW
Chicks were weighed at the beginning and the end of the trial and weight gain calculated by subtracting the starting weight from the ending weight. Feed intakes were calculated via subtracting the feed refusals from the feed provided, with Zn intakes calculated based on Zn concentration in the diet and total feed consumed. Feed conversions were determined by using the feed consumed divided by weight gained.
Upon termination of the experiment, chicks and feeders were weighed and chicks were euthanized with CO2 gas. The right tibia from each chick was removed and pooled by replicate pen. The tibia was then autoclaved and cleaned to remove all adhering tissue, dried at 110° C. for 24 h, and then dry ashed in a muffle furnace. The ash was analyzed for Zn at the University of Missouri. Bioavailability of Zn was then determined by the slope-ratio method using multiple regression analysis. Weight gain, tibia Zn concentration and total tibia Zn were regressed on supplemental Zn intake from the Zn sources and the bioavailability of the Zn in the Zn-protein sources was calculated relative to the Zn in ZnSO4·7H2O.

- Tibia Ash Zn Conc. (μg/g of ash) (3 mg/kg supplemental Zn): 79.16^ef μg/g of ash
- Tibia Ash Zn Conc. (μg/g of ash) (6 mg/kg supplemental Zn): 88.98^cd μg/g of ash
- Tibia Ash Zn Conc. (μg/g of ash) (9 mg/kg supplemental Zn): 101.2^ab μg/g of ash
Compound: O.O.O.O.O.O.O.O=S(=O)([O-])[O-].[Zn+2] [ZnSO4, ZnSO4·7H2O]
- Dry Bone Wt (mg/tibia) (3 mg/kg supplemental Zn in Zn-deficient basal diet): 1012^e mg/tibia
- Bone Ash (%) (3 mg/kg supplemental Zn): 42.8^bcd %
- Bone Ash Wt (mg/tibia) (3 mg/kg supplemental Zn): 433^de mg/tibia
- Dry Bone Wt (mg/tibia) (6 mg/kg supplemental Zn in Zn-deficient basal diet): 1104^bdc mg/tibia
- Bone Ash (%) (6 mg/kg supplemental Zn): 43.4^abcd %
- Bone Ash Wt (mg/tibia) (6 mg/kg supplemental Zn): 478^bc mg/tibia
- Dry Bone Wt (mg/tibia) (9 mg/kg supplemental Zn in Zn-deficient basal diet): 1176^ab mg/tibia
- Bone Ash (%) (9 mg/kg supplemental Zn): 43.8^ab %
- Bone Ash Wt (mg/tibia) (9 mg/kg supplemental Zn): 515^ab mg/tibia
- Feed efficiency (Zinc inclusion at 3 mg/kg and 6 mg/kg): approximately 560 g/kg of feed consumed
